Data on 20 compounds can be found in patent publication US11639353B2, “Cyclobutanes- and azetidine-containing mono and spirocyclic compounds as αV integrin inhibitors” (BRISTOL-MYERS SQUIBB COMPANY, priority 2016, dated 2023).

Counter-ions that a name gives are not always drawn.

The target of the experiment is T1, human αVβ6 (Homo sapiens, UniProt P06756+P18564).
T1 construct: purchased R & D systems 3817-AV
T1 sequence (P06756 31-992 limits assumed): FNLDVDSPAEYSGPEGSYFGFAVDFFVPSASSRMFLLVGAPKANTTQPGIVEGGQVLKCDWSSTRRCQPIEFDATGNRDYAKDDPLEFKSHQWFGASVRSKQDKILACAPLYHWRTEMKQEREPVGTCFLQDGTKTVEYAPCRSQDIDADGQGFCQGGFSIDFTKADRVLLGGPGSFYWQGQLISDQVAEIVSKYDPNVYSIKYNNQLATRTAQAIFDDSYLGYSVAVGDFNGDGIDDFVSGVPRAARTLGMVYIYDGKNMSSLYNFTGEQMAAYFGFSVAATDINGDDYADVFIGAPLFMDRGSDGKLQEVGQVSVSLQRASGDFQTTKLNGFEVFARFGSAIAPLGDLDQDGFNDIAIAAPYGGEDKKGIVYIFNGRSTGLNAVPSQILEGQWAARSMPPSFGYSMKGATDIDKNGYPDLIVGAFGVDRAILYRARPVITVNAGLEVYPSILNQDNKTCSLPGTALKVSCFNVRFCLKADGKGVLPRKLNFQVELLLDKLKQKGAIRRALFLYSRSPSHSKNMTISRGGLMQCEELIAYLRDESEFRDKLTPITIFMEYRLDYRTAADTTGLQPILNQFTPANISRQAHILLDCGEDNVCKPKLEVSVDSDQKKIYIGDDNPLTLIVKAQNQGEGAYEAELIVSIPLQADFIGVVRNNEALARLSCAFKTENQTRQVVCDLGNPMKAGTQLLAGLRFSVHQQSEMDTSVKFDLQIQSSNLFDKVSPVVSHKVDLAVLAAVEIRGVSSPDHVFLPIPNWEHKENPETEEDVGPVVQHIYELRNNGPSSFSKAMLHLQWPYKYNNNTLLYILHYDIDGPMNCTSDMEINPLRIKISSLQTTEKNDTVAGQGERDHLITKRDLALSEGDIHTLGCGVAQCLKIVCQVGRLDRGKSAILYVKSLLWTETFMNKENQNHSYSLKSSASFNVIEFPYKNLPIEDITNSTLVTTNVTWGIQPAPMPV
T1 sequence (P18564 22-707 limits assumed): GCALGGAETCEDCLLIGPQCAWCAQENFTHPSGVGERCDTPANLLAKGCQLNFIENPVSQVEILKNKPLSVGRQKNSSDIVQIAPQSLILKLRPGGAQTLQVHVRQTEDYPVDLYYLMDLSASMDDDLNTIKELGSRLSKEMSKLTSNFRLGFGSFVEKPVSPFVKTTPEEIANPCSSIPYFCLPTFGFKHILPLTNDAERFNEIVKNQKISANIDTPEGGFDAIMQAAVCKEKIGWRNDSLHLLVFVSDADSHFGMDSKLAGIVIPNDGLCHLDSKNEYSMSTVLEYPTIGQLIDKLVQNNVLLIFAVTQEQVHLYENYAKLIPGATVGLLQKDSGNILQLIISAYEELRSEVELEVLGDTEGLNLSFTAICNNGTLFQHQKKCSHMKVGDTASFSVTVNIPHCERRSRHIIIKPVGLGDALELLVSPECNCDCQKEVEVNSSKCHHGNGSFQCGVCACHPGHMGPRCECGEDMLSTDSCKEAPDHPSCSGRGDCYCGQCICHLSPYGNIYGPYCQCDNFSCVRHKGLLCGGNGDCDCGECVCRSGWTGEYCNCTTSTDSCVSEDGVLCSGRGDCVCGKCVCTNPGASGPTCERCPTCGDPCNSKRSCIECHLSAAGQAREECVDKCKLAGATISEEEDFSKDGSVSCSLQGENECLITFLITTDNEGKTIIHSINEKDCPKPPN
The experiment is described as follows: human αVβ6 HTRF binding assay. Conditions: alternatively SPA-based assay. A digest of the protocol: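 Biotinylated recombinant human αVβ6 (1.25 nM final) incubated with FITC-fibronectin (5 nM final) 1 h at RT, then streptavidin-terbium (0.625 nM final) added and left overnight at RT in the dark before HTRF reading. Buffer: 20 mM Tris pH 7.4, 1 mM MgCl2, 1 mM MnCl2, 0.01% Tween 20, 0.01% BSA.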
Turning to `Cc1ncc([C@H](CC(=O)O)NC(=O)N2CC(CCc3ccc4c(n3)NCCC4)C2)cn1` [Example 120], the IC50 came out at 5.9 nM.
As for `O=C(O)C[C@H](NC(=O)N1CC(CCc2ccc3c(n2)NCCC3)C1)c1cncnc1` [Example 121], the half-inhibitory concentration (IC50) was found to be 6.2 nM.
With `COc1ccc(C(CC(=O)O)C2(F)CN(CCCCc3ccc4c(n3)NCCC4)C2)cn1` (centres unmarked) [Example 122] the figure was 28 nM; with `COc1ncc([C@H](CC(=O)O)NC(=O)N2CC(CCc3ccc4c(n3)NCCC4)C2)cn1` [Example 123], 4.3 nM.
Take `O=C(O)CCC1CC2(C1)CC(CCc1ccc3c(n1)NCCC3)C2` (centres unmarked) [Example 124]: the concentration for half-maximal inhibition (IC50) amounted to 93 nM.
Take `COc1ccc(C(CC(=O)O)C2CC(NCCCc3ccc4c(n3)NCCC4)C2)cn1` (centres unmarked) [Example 125]: the IC50 amounted to 5.7 nM.
On to `COc1ccc(C(CC(=O)O)C2CC(NCCCc3ccc4c(n3)NCCC4)C2)cc1F` (centres unmarked) [Example 126], for which the IC50 is 4.18 nM.
For `Cc1ncc(C(CC(=O)O)N2CC(COCCc3ccc4c(n3)NCCC4)C2)cn1` (centres unmarked) [Example 127, 3-(2-methylpyrimidin-5-yl)-3-(3-((2-(5,6,7,8-tetrahydro-1,8-naphthyridin-2-yl)ethoxy)methyl)azetidin-1-yl)propanoic acid, 2 TFA], the IC50 is 7.9 nM.
The compound `Cc1ncc(C(CC(=O)O)N2CC(OCCCc3ccc4c(n3)NCCC4)C2)cn1` (centres unmarked) [Example 130, 3-(2-methylpyrimidin-5-yl)-3-(3-(3-(5,6,7,8-tetrahydro-1,8-naphthyridin-2-yl)propoxy)azetidin-1-yl)propanoic acid, 2 TFA] came in with a concentration for half-maximal inhibition (IC50) of 8.2 nM.
In turn, `O=C(O)CC(c1cnc2ccccc2c1)N1CC(OCCCc2ccc3c(n2)NCCC3)C1` (centres unmarked) [Example 133] returned an IC50 of 5.6 nM.
In turn, `COc1ccc(C(CC(=O)O)N2CC(OCCCc3ccc4c(n3)NCCC4)C2)cn1` (centres unmarked) [Example 134, 3-(6-methoxypyridin-3-yl)-3-(3-(3-(5,6,7,8-tetrahydro-1,8-naphthyridin-2-yl)propoxy)azetidin-1-yl)propanoic acid, 2 TFA] returned a concentration for half-maximal inhibition (IC50) of 4.6 nM.
The value for `COc1ccc(C(CC(=O)O)N2CC(OCCCc3ccc4c(n3)NCCC4)C2)cc1F` (centres unmarked) [Example 135, 3-(3-fluoro-4-methoxyphenyl)-3-(3-(3-(5,6,7,8-tetrahydro-1,8-naphthyridin-2-yl)propoxy)azetidin-1-yl)propanoic acid, 2 TFA] was 4.9 nM.
With `COc1ccc([C@@H](CC(=O)O)N2CC(OCCCc3ccc4c(n3)NCCC4)C2)cc1F` [Example 137, (R)-3-(3-fluoro-4-methoxyphenyl)-3-(3-(3-(5,6,7,8-tetrahydro-1,8-naphthyridin-2-yl)propoxy)azetidin-1-yl)propanoic acid] the figure was 160 nM; with `COc1ccc(C(CC(=O)O)C2CC(CCCCc3ccc4c(n3)NCCC4)C2)cn1` (centres unmarked) [Example 138, 3-(6-Methoxypyridin-3-yl)-3-(3-(4-(5,6,7,8-tetrahydro-1,8-naphthyridin-2-yl)butyl)cyclobutyl)propanoic acid], 3.2 nM; with `COc1ccc(C(CC(=O)O)C2CC3(CC(CCc4ccc5c(n4)NCCC5)C3)C2)cn1` (centres unmarked) [Example 141], 2.9 nM.
The compound `O=C(O)CC(c1cnc2ccccc2c1)C1CN(CCCCc2ccc3c(n2)NCCC3)C1` (centres unmarked) [Example 142] came in with an IC50 of 9.9 nM.
The value for `COc1ccc(C(CC(=O)O)C2CN(CCCCc3ccc4c(n3)NCCC4)C2)cc1F` (centres unmarked) [Example 143] was 8.5 nM; that for `O=C(O)CC(c1ccc(N2CCOCC2)nc1)C1CC2(CC(CCc3ccc4c(n3)NCCC4)C2)C1` (centres unmarked) [Example 144] was 4.9 nM; that for `O=C(O)CC(c1cccc(N2CCOCC2)c1)C1CC2(CC(CCc3ccc4c(n3)NCCC4)C2)C1` (centres unmarked) [Example 145] was 2.7 nM.
With `O=C(O)CC(c1cccc(N2CCOCC2)c1)C1CC(CCCCc2ccc3c(n2)NCCC3)C1` (centres unmarked) [Example 146, 3-(3-Morpholinophenyl)-3-(3-(4-(5,6,7,8-tetrahydro-1,8-naphthyridin-2-yl)butyl)cyclobutyl)propanoic acid] the figure was 14 nM.

Broadly, the IC50 is the point on the concentration scale where inhibition reaches its midpoint.
